Assays:
Agriotes spp. = test: Field furrow spray test, mortality of corn plants from damage by Agriotes spp. (Example 9); format: in vivo; conditions: 50 g/ha, furrow spray 100 L/ha, 34 days after treatment, average of four sections, non-treatment section 16.35
Method: A land was ditched at intervals of 80 cm, a predetermined amount of a water-diluted liquid of an esfenvalerate emulsifiable concentrate (using 25 g/L of an EC preparation, trade name: Sumialpha 2.5 EC, manufactured by Philagro) or a water-diluted liquid of a lambda-cyhalothrin SC (using 100 g/L of a SC preparation, trade name: KAPATE ZEON, manufactured by SYNGENTA) was prepared so that the applied amount of an effective component was the amount described in Table 4, and the furrow was spray-treated with the liquid at a spray amount of 100 L/ha. Then, the furrow was seeded with corn (Zea Mays, variety name: Kubrik), and a soil on the side of the furrow was gathered together to close the furrow. A seeding density of corn was 87500 seeds/ha. They were defined as example sections 16 and 17.
For comparison, a non-treatment section, which was seeded with corn in the same manner as in the example sections except that a treatment with a chemical was not performed, was provided. […]
34 days after the treatment with a chemical, the number of plants of corn grown in each of the example sections 16 and 17 and the non-treatment section were investigated, a mortality of plants of corn died because of the damage by Agriotes spp. was calculated in accordance with the following equation, and then an average mortality of the four investigation sections was determined. […]

[1] = tested on: Diabrotica virgifera virgifera and Agriotes lineatus; test: Field furrow application test, lodge rate of corn due to damage by Diabrotica virgifera virgifera and Agriotes lineatus (Examples 4-8, 10, 11); format: in vivo; conditions: 165 days after application, versus non-treatment section
Description: A chemical fertilizer (N:P:K=15:15:15) is applied to the soil surface of a cultivated land at 300 kg/ha, and the cultivated land is then plowed.
7 days after fertilization, for suppressing generation of weeds, the soil surface of the whole cultivated land is spray-treated with a mixed liquid containing thiencarbazone-methyl and isoxaflutole, each of which being a herbicide, and cyprosulfamide which is a safener at 150 L/ha so that the application amounts of thiencarbazone-methyl, isoxaflutole and cyprosulfamide are 9.2 g/ha, 23 g/ha and 15 g/ha, respectively. […]
17 days after application of clothianidin and tefluthrin, the number of plants of corn germinated is investigated, with central two rows of four rows of seeded furrows as an investigation section, for the treatment section and the non-treatment section. 165 days after application of clothianidin and tefluthrin, the number of plants of corn lodged due to damage by Diabrotica virgifera virgifera and Agriotes lineatus in the furrows of the treatment section and the non-treatment section, for which the number of plants of corn germinated is investigated, is investigated, a lodge rate is calculated in accordance with the following equation, and then an average lodge rate for the four investigation sections is determined. […]

**Q.** What does the source list for `CC1(C)[C@H](C(=O)O[C@H](C#N)c2cccc(Oc3ccccc3)c2)[C@@H]1/C=C(\Cl)C(F)(F)F` (racemic) [Lambda-cyhalothrin]?
**A.** Average mortality (%) (Agriotes spp.): 3.35%; Lodge rate (%) ([1]; Example 11: water-diluted lambda-cyhalothrin SC in furrow, 100 g/ha): low lodge rate as compared to the non-treatment section

**Q.** For `CC(C)[C@H](C(=O)O[C@H](C#N)c1cccc(Oc2ccccc2)c1)c1ccc(Cl)cc1` [Esfenvalerate], which “Average mortality (%)” value (Agriotes spp.) is on record?
**A.** The value was 4.85%.

**Q.** And the “Lodge rate (%)” value ([1]; Example 10: water-diluted Sumialpha 2.5 EC in furrow, esfenvalerate 100 g/ha)?
**A.** The value was “low lodge rate as compared to the non-treatment section”.

Reference: patent US9439415B2, “Method for reducing damage by harmful organisms in corn cultivation” (priority 2012, dated 2016)
